Read-outs that look alike come from different tables or passages of the source. One block for each molecule: values may come before it.
Tested on: MatTek 300 skin (a skin model constructed from live cells)
Test: Penetration study using MatTek skin, formulation with vs without cellulose nanofibers, UPLC analysis
Assay type: in vitro ADME
Procedure: A testing formulation with and without nanocellulose and various skin care actives was prepared. The formulation was prepared by mixing the Phase I components until all of the solids were dissolved (e.g., about 10-15 min). The Phase 2 components were added to the Phase 1 components and mixed until lump free (e.g., about 10 min). The Phase 3 components were pre-mixed until lump free and slowly added to the initial mixture and mixed until uniform (e.g., about 30 min). The Phase 4 components were mixed until uniform and slowly added to the initial mixture and mixed to uniformity (e.g., about 15-20 min). The Phase 5 components were premixed and then added to the mixture and mixed until uniform (e.g., about 15-20 min). The Phase 6 components were added to the mixture under Silverson to adjust the pH to about 5.5 to 6.5 to increase the stability of the AA2G and mixed until lump free (e.g., about 15-20 min). A penetration study was then performed using the base formula without nanocellulose as a control. […] In a 6-well plate, MatTek 300 skin (a skin model constructed from live cells, obtained from MatTek) was placed in the well with 2.00 mL of incubation medium (also provided by MatTek). The medium was removed, and 2.0 mL of phosphate buffer saline/propandiol (PBS/PPD) 1:1 mixture was added. The PBS/PPD mixture was then removed. This washing process was repeated twice. Then 2.0 mL of the PBS/PPD mixture was added as the collection phase. To the top of each skin, 400 μl of a sample was loaded. The skin was then incubated at 37° C. for 72 hours. Finally, the PBS/PPD collection phase was filtered through 0.45 μm PTFE syringe filter into high performance liquid chromatography (HPLC) vials. Waters ACQUITY H ultra-performance liquid chromatography (UPLC) was used to analyze the collected samples from the penetration study.

Structure (SMILES): COc1ccc(CCCc2ccc(O)cc2O)c(OC)c1C [UP302]
penetration efficacy, formulation with cellulose nanofibers vs without (in words) (MatTek 300 skin, 37° C., 72 hours, PBS/PPD collection phase): modulated, reduced, and limited

Structure (SMILES): O=C(c1ccccc1)c1ccccc1 [benzophenone]
penetration efficacy, composition with nanocellulose vs without (in words) (benzophenone 4% (w/w of the total composition), sunscreen formulations): directionally reduced

Next, values leading:

penetration efficacy, formulation with cellulose nanofibers vs without (in words): significantly enhanced
Structure (SMILES): O=C1O[C@H]([C@@H](O)CO)C(O)=C1O[C@H]1O[C@H](CO)[C@@H](O)[C@H](O)[C@H]1O [AA2G, ascorbic acid 2-glucoside]

penetration within the skin, composition with nanocellulose vs without (in words): reduced
rate of release from composition with nanocellulose (in words): slower rate of release
Structure (SMILES): CC1=C(/C=C/C(C)=C/C=C/C(C)=C/CO)C(C)(C)CCC1 [Retinol, reference compound]

penetration efficacy, composition with nanocellulose vs without (in words): not increased
Structure (SMILES): OCCOc1ccccc1 [phenoxyethanol]
